How the values were obtained:
[1] = Plasma composition analysis, parent compound and metabolites by MS; format: in vivo; details: rat plasma; for Plasma Component: P-OH: Compound G: detected but not confirmed (footnote a)
Procedure: Rats receive compounds (5 mg/kg) dissolved in HPβCD 15%, dextrose 2.5%, pH 5 by intravenous (i.v). route or (25-30 mg/kg) dissolved in HPβCD 15%, dextrose 2.5%, […] (s.c.) route or (50-150 mg/kg) dissolved in HPβCD 15%, dextrose 2.5%, pH 5 by oral (p.o.) route. After the treatment, approximately 100 μl of blood sample is collected and the accurate bleeding time is recorded for each sample. Each blood sample is collected into Microvette blood collection tube containing anticoagulant lithium heparin. Following collection, the samples are centrifuged at […] for 15 minutes (to avoid haemolysis) and the plasma obtained from each is recovered and stored frozen (at −80° C.) pending analysis. Frozen samples are shipped on dry ice to quantify drug concentration within plasma after extraction procedure as previously described in Example 13.

ASIC1a [2] = molecular target: T1, ASIC1a (Homo sapiens, UniProt P78348); test: Calcium-imaging (calcium mobilization, FLIPR) assay in ASIC1a expressing HEK293 cells; format: cell-based; design: host or cells: HEK293; details: n=3-7, compounds not radiolabelled
T1 sequence (P78348 1-528): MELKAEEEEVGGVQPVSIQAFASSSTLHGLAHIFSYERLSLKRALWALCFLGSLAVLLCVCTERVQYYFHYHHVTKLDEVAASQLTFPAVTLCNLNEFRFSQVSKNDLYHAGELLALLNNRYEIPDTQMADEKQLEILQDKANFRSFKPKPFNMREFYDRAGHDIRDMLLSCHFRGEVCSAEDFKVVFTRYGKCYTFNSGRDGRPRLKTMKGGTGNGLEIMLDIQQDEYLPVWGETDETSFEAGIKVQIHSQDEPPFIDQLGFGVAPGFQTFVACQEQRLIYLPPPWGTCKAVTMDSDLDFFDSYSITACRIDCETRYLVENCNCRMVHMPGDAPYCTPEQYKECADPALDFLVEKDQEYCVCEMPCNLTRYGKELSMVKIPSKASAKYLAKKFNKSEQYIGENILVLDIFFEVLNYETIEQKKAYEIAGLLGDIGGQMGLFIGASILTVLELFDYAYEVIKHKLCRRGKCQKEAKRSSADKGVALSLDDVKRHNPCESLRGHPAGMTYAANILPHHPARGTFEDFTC
Procedure: ASIC1a expressing HEK293 cells are grown in culture medium (DMEM with 10% FBS), in polystyrene culture flasks ([…]) at 37° C. in a humidified atmosphere of 5% CO2. Confluency of cells should be 80-90% on day of plating. Cells are rinsed with 10 ml of PBS and re-suspended by addition of culture medium and trituration with a 25 ml pipette.
The cells are seeded at a density of approximately 1×10^6 cells/ml (100 μl/well) in black-walled, clear bottom, 96-well plates pre-treated with 10 mg/l poly-D-lysin (75 μl/well for ≧30 min). Plated cells were allowed to proliferate for 24 h before loading with dye.
Fluo-4/AM (1 mg, Molecular Probes) is dissolved in 912 μl DMSO. The Fluo-4/AM stock solution (1 mM) is diluted with culture medium to a final concentration of 2 μM (loading solution).
The culture medium is aspirated from the wells, and 50 μl of the Fluo-4/AM loading solution is added to each well. The cells are incubated at 37° C. for 30 min.
After the loading period, the loading solution is aspirated and the cells are washed twice with 100 μl modified Assay Buffer (145 mM NaCl, 5 mM KCl, 5 mM CaCl2, 1 mM MgCl2, 10 mM HEPES, pH 7.4) to remove extracellular dye. Following the second wash, 100 μl modified Assay Buffer is added to each well and the fluorescence is measured in FLIPR™ or FlexStation™ (Molecular Devices, USA), or any other suitable equipment known to the skilled in the art.
Temperature: Room temperature (20-22° C.)
First addition: 50 μl test solution at a rate of 30 μl/sec and a starting height of […]
Second addition: 50 μl MES solution (20 mM, 5 mM final concentration) at a rate of 35 μl/sec and a starting height of 150 μl.
Reading intervals: pre-incubation—10 sec×7 and 3 sec×3 antagonist phase—3 sec×17 and 10 sec×12
Addition plates (compound test plate and MES plate) are placed on the right and left positions in the FLIPR tray, respectively. Cell plates are placed in the middle position and the ASIC1a program is effectuated. FLIPR will then take the appropriate measurements in accordance with the interval settings above. Fluorescence obtained after stimulation is corrected for the mean basal fluorescence (in modified Assay Buffer).
The MES-induced peak calcium response, in the presence of test substance, is expressed relatively to the MES response alone. Test substances that block the MES-induced calcium response are re-tested in triplicates. Confirmed hits are picked for further characterization by performing full dose-response curves to determine potency of each hit compound as represented by the IC50 values (i.e., the concentration of the test substance which inhibits 50% of the MES-induced calcium response).
It is noted that the compounds below are not radiolabelled.

ASIC1a [3] = molecular target: T1, ASIC1a; test: Whole cell patch clamp in heterologous expression system (CHO cells); format: cell-based; design: expressed in transfected cells; host or cells: CHO cells
Procedure: Another example of an in vitro assessment method consists of using mammalian heterologous expression systems, which are known to the skilled in the art, and include a variety of mammalian cell lines such as COS, HEK, e.g., HEK293 and/or CHO, cells. Cell lines are transfected with gated ion channel(s) and used to perform electrophysiology as follows:
All experiments are performed at room temperature (20-25° C.) in voltage clamp using conventional whole cell patch clamp methods (Neher, E., et al. (1978) Pfluegers Arch 375:219-228).
The amplifier used is the EPC-9 (HEKA-electronics, Lambrect, Germany) run by a Macintosh G3 computer via an ITC-16 interface. Experimental conditions are set with the Pulse-software accompanying the amplifier. Data is low pass filtered and sampled directly to hard-disk at a rate of 3 times the cut-off frequency.
Pipettes are pulled from borosilicate glass using a horizontal electrode puller (Zeitz-lnstrumente, Augsburg, Germany). The pipette resistances are 2-3 MOhms in the salt solutions used in these experiments. The pipette electrode is a chloridized silver wire, and the reference is a silver chloride pellet electrode (In Vivo Metric, Healdsburg, USA) fixed to the experimental chamber. The electrodes are zeroed with the open pipette in the bath just prior to sealing.
Coverslips with the cells are transferred to a 15 μl experimental chamber mounted on the stage of an inverted microscope (IMT-2, Olympus) supplied with Nomarski optics. Cells are continuously superfused with extracellular saline at a rate of 2.5 ml/min. After giga-seal formation, the whole cell configuration is attained by suction. The cells are held at a holding voltage of −60 mV and at the start of each experiment the current is continuously measured for 45 s to ensure a stable baseline. […] Current amplitudes are measured at the peak of the responses, and effect of the compounds is calculated as the amplitude at compound equilibrium divided by the amplitude of the current evoked by the pulse just before the compound was included. […]

[4] = system: CFA-induced change in weight bearing in Sprague-Dawley rats; test: CFA model of chronic inflammatory pain, hindpaw weight bearing; format: in vivo, rat; details: 24 h after CFA; 60 min after drug; Compound A 5, 10, 20 mg/kg i.p.; Compound H 10, 30, 60 mg/kg; morphine 3, 6, 10 mg/kg; n=7-8
Procedure: Rats (body weight 260-300 g) were given a s.c. injection of CFA (50% in saline, 100 μl, Sigma) into the plantar surface of the hindpaw under brief halothane anaesthesia. After 24 h, they were then tested for hindpaw weight bearing responses, as assessed using an Incapacitance Tester (Linton Instrumentation, UK), (Zhu et al., 2005). The instrument incorporates a dual channel scale that separately measures the weight of the animal distributed to each hindpaw. While normal rats distribute their body weight equally between the two hindpaws (50-50), the discrepancy of weight distribution between an injured and non-injured paw is a natural reflection of the discomfort level in the injured paw (nocifensive behavior). The rats were placed in the plastic chamber designed so that each hindpaw rested on a separate transducer pad. […] For each rat, three readings from each paw were taken and then averaged. Side-to-side weight bearing difference was calculated as the average of the absolute value of the difference between two hindpaws from three trials (right paw reading-left paw reading).
Hindpaw weight bearing responses were measured in male Sprague-Dawley rats for 2-3 days prior to being given a hindpaw injection of CFA. Twenty-four hours later baseline responses were measured and rats were then administered Compound A (5, 10 and 20 mg/kg, i.p.), Compound H (10, 30 and 60 mg/kg) and morphine (3, 6 and 10 mg/kg). Weight bearing responses were then measured at 30, 60 and 120 min after drug or vehicle injection (data shown at 60 min.). […] All groups n=7-8.

CCN1CCc2c(-c3ccccc3OC)cc3c(c2C1)NC(=O)/C3=N/O [Compound J, 5-(2-methoxy-phenyl)-6,7,8,9-tetrahydro-3-(hydroxyimino)-8-ethyl-1H-pyrrolo[3,2-h]isoquinoline-2(3H)-one]
Plasma Component: N-desEt ([1]; IV 5 mg/kg): Small
Plasma Component: O-desMe ([1]; IV 5 mg/kg (table of Compounds G and J)): Small
Plasma Component: P-OH ([1]; IV 5 mg/kg): Small
Plasma Component: N-desEt ([1]; PO 50 mg/kg): Small
Plasma Component: O-desMe ([1]; PO 50 mg/kg (table of Compounds G and J)): Small
Plasma Component: P-OH ([1]; PO 50 mg/kg): Small
IC50 (ASIC1a [2]): 700 nM

N=C(N)NC(=O)c1nc(Cl)c(N)nc1N [amiloride, reference compound]
human ASIC1a pH-evoked response (ASIC1a [3]): reduce the human ASIC1a pH-evoked response in CHO cells in a dose-dependent manner

CN1CC[C@]23c4c5ccc(O)c4O[C@H]2[C@@H](O)C=C[C@H]3[C@H]1C5 [morphine, reference compound]
CFA-induced change in weight bearing compared with vehicle [4]: marked dose-dependent attenuation
